Assays:
Assay type in all cases: in vivo, mouse
[1] = system: spontaneous pain-like behavior induced by PACAP intrathecal administration; assay: Spontaneous pain-like behavior induced by PACAP intrathecal administration; conditions: simultaneous i.t. with PACAP (100 pmol), counted for 30 minutes
Method: When PACAP (100 pmol/5 L) is intrathecally administered to a mouse in a single dose (single i.t. injection), spontaneous pain-like behavior in which the mouse licks or bites the rear half of the body occurs about 5 minutes after the administration (and continues for several hours) (Ohnou et al. J. Pharmacol. Sci. 130, 194-203, 2016). […] Male ddY mice (6 to 12 weeks old) were used, and the behaviors were taken on video. The number of times of spontaneous pain-like behaviors for 30 minutes after the administration was counted.

[2] = system: cold allodynia induced by oxaliplatin; assay: Onset of cold allodynia induced by oxaliplatin, drug given around oxaliplatin administration; conditions: 10 mg/kg oral, 30 minutes before oxaliplatin or 3 administrations
Method: Oxaliplatin was dissolved in 5% glucose-containing saline and intraperitoneally administered at a dose of 2 mg/kg. Drug administration (oral administration) was performed 30 minutes before oxaliplatin administration (FIG. 7A); or 3 times: 30 minutes before oxaliplatin administration, 2.5 hours after the administration, and 5.5 hours after the administration (FIG. 7B). Male ddY mice (6 to 12 weeks old) were used. The axis of ordinates is the duration of the behavior of licking and paw waving after the application of an acetone drop (10 μL) to the footpad of a hind paw.

[3] = system: mechanical allodynia induced by spinal nerve injury; assay: Spinal nerve ligation (SNL) model, repeated intraperitoneal administration, mechanical allodynia
Method: Male ddY mice (6 to 12 weeks old) were used, and the threshold to a mechanical stimulus was evaluated by the vonFrey test. Specifically, the 50% withdrawal reflex threshold (Threshold) was calculated in accordance with the method of Chaplan et al. (Chaplan et al., J. Neurosci. Meth. 53, 55-63, 1994). Each compound was dissolved in 99.7% DMSO, and then the resulting solution was diluted with an artificial cerebrospinal fluid for preparation (final concentration of DMSO was 0.2%).
Spinal nerve ligation (SNL) models in which the fourth lumbar cord spinal nerves of male ddY (6 to 12 weeks old) were ligated with silk thread were used. A solvent (VEH: 10% DMSO-containing saline). PA-8, the compound 2j or the compound 20 was intraperitoneally administered (30 mg/kg) 5 to 10 minutes before the ligation, and once a day for 7 days thereafter. The method of causing a mechanical stimulus is the same as that of Example 5, and data from the first day after the ligation (D1) are data 1 hour after the administration of VEH or the drugs.

[4] = system: pain-like behavior induced by formalin; assay: Pain-like behavior induced by formalin; conditions: 0.1 to 10 nmol i.t.
Method: The first phase is direct action of formalin on sensory nerves (to around 10 minutes after formalin administration). In the second phase (from around 10 minutes to 60 minutes after formalin administration), hypersensitization formed in spinal dorsal horn cells during the first phase (a type of plastic phenomenon in the nervous system also called central sensitization) is a main cause, and inflammatory reaction at the site of formalin administration contributes importantly.

C=CCOc1ccc(C2CC(=O)Nc3nc(N)[nH]c(=O)c32)cc1OC (stereo not shown) [PA-8, reference compound]
suppression of PACAP-induced spontaneous pain-like behavior ([1]; 10 pmol): suppressed the PACAP response significantly | suppression of PACAP-induced spontaneous pain-like behavior ([1]; 100 pmol): suppressed the PACAP response significantly | suppression of the onset of cold allodynia by oxaliplatin [2]: suppressed the onset of cold allodynia by oxaliplatin significantly | suppression of the onset of mechanical allodynia ([3]; 30 mg/kg i.p. before ligation and once a day for 7 days): suppressed the onset of mechanical allodynia significantly | mechanical threshold after discontinuation of administration ([3]; 30 mg/kg i.p., discontinued on the seventh day, versus VEH group): maintained the mechanical threshold highly significantly for at least 7 days thereafter | effect on first phase reaction [4]: did not affect the first phase reaction | effect on second phase reaction [4]: suppressed the second phase reaction significantly depending on the concentration

— patent publication US11365194B2, “Analgesic drug using PAC1 receptor antagonistic drug” (KAGOSHIMA UNIVERSITY, priority 2017, dated 2022)
